Results on one compound are retold here after paper PMC5218480 (PLoS ONE, 2017).

The experiment deals with MV-4-11 cells. Nature of the experiment: Gene expression microarray analysis (Affymetrix PrimeView) and GSEA. Format: cell-based, human. Also noted: RFU PODN (11730768_x_at) / Fold change /veh PODN (11730768_x_at) / RFU LINC00158 (11744669_a_at) / Fold change /veh LINC00158 (11744669_a_at) / RFU DUSP10 (11751237_a_at) / Fold change /veh DUSP10 (11751237_a_at) / RFU ID3 (11757404_x_at) / Fold change /veh ID3 (11757404_x_at) / RFU PLEKHG5 (11737974_s_at) / Fold change /veh PLEKHG5 (11737974_s_at) / RFU LRRC4B (11730491_at) / Fold change /veh LRRC4B (11730491_at) / RFU GIMAP4 (11747438_a_at) / Fold change /veh GIMAP4 (11747438_a_at) / RFU KRT8 (11758183_x_at) / Fold change /veh KRT8 (11758183_x_at) / RFU CNN1 (11734310_a_at) / Fold change /veh CNN1 (11734310_a_at) / RFU VPS37D (11726825_at) / Fold change /veh VPS37D (11726825_at) / RFU C10orf10 (11716522_x_at) / Fold change /veh C10orf10 (11716522_x_at) / RFU KIR2DL2 /// KIR2DL4 /// KIR2DL5A /// KIR2DL5B /// KIR2DS1 /// KIR2DS2 /// KIR2DS3 /// KIR2DS4 /// KIR3DL3 /// KIR3DL3 /// KIR3DS1 (11738374_at) / Fold change /veh KIR2DL2 /// KIR2DL4 /// KIR2DL5A /// KIR2DL5B /// KIR2DS1 /// KIR2DS2 /// KIR2DS3 /// KIR2DS4 /// KIR3DL3 /// KIR3DL3 /// KIR3DS1 (11738374_at) / RFU C1QL1 (11718748_at) / Fold change /veh C1QL1 (11718748_at) / RFU TMPRSS4 (11747572_a_at) / Fold change /veh TMPRSS4 (11747572_a_at) / RFU HAMP (11756126_x_at) / Fold change /veh HAMP (11756126_x_at) / RFU RNFT2 (11725882_a_at) / Fold change /veh RNFT2 (11725882_a_at) / RFU NR4A2 (11747474_a_at) / Fold change /veh NR4A2 (11747474_a_at) / RFU ABCC12 (11746883_a_at) / Fold change /veh ABCC12 (11746883_a_at) / RFU TMEM136 (11760407_x_at) / Fold change /veh TMEM136 (11760407_x_at) / RFU CLDN22 /// WWC2 (11732394_at) / Fold change /veh CLDN22 /// WWC2 (11732394_at) / RFU HLA-DPB1 (11760878_x_at) / Fold change /veh HLA-DPB1 (11760878_x_at) / RFU SPINT1 (11716480_a_at) / Fold change /veh SPINT1 (11716480_a_at) / RFU GAP43 (11754022_s_at) / Fold change /veh GAP43 (11754022_s_at) / RFU A4GNT (11735810_at) / Fold change /veh A4GNT (11735810_at) / RFU PRB3 (11715151_x_at) / Fold change /veh PRB3 (11715151_x_at) / RFU TUBB4B (11761932_at) / Fold change /veh TUBB4B (11761932_at) / RFU CAPN14 (11732068_a_at) / Fold change /veh CAPN14 (11732068_a_at) / RFU TMCC2 (11721928_a_at) / Fold change /veh TMCC2 (11721928_a_at) / RFU IRGQ (11745062_a_at) / Fold change /veh IRGQ (11745062_a_at) / RFU FAM174B (11720279_a_at) / Fold change /veh FAM174B (11720279_a_at) / RFU TMPRSS4 (11748680_a_at) / Fold change /veh TMPRSS4 (11748680_a_at) / RFU FAM212B (11763350_a_at) / Fold change /veh FAM212B (11763350_a_at) / RFU PLEKHG5 (11743358_a_at) / Fold change /veh PLEKHG5 (11743358_a_at) / RFU ZSCAN30 (11745921_a_at) / Fold change /veh ZSCAN30 (11745921_a_at) / RFU CMKLR1 (11741424_a_at) / Fold change /veh CMKLR1 (11741424_a_at) / RFU LOC101060620 /// MAPK8IP1 (11723275_at) / Fold change /veh LOC101060620 /// MAPK8IP1 (11723275_at) / RFU SPTSSB (11747773_x_at) / Fold change /veh SPTSSB (11747773_x_at) / RFU PRSS12 (11739890_at) / Fold change /veh PRSS12 (11739890_at) / RFU BIN1 (11741810_x_at) / Fold change /veh BIN1 (11741810_x_at) / RFU WNT11 (11732464_a_at) / Fold change /veh WNT11 (11732464_a_at) / RFU C10orf10 (11716521_a_at) / Fold change /veh C10orf10 (11716521_a_at) / RFU C5orf56 (11738089_at) / Fold change /veh C5orf56 (11738089_at) / RFU CYB561 (11721691_x_at) / Fold change /veh CYB561 (11721691_x_at) / RFU ANKRD19P (11752326_a_at) / Fold change /veh ANKRD19P (11752326_a_at) / RFU OR2T12 /// OR2T33 /// OR2T8 (11738714_s_at) / Fold change /veh OR2T12 /// OR2T33 /// OR2T8 (11738714_s_at) / RFU VCAN (11748164_a_at) / Fold change /veh VCAN (11748164_a_at) / RFU JSRP1 (11732532_at) / Fold change /veh JSRP1 (11732532_at) / RFU KRTAP10-11 (11738290_x_at) / Fold change /veh KRTAP10-11 (11738290_x_at) / RFU MYO3A (11730013_a_at) / Fold change /veh MYO3A (11730013_a_at) / RFU EBF3 (11725865_a_at) / Fold change /veh EBF3 (11725865_a_at) / RFU CAMK2N1 (11719241_x_at) / Fold change /veh CAMK2N1 (11719241_x_at) / RFU C5orf56 (11738088_a_at) / Fold change /veh C5orf56 (11738088_a_at) / RFU OLFML3 (11715873_a_at) / Fold change /veh OLFML3 (11715873_a_at) / RFU LOC100653217 /// NTM (11731650_a_at) / Fold change /veh LOC100653217 /// NTM (11731650_a_at) / RFU MAPK11 (11762145_a_at) / Fold change /veh MAPK11 (11762145_a_at) / RFU FIZ1 (11724087_x_at) / Fold change /veh FIZ1 (11724087_x_at) / RFU OASL (11726364_x_at) / Fold change /veh OASL (11726364_x_at) / RFU SOX15 (11748057_x_at) / Fold change /veh SOX15 (11748057_x_at) / RFU CD79A (11719716_a_at) / Fold change /veh CD79A (11719716_a_at) / RFU HIST1H1D (11736915_at) / Fold change /veh HIST1H1D (11736915_at) / RFU CASKIN2 (11723855_a_at) / Fold change /veh CASKIN2 (11723855_a_at) / RFU LOC730098 (11760151_x_at) / Fold change /veh LOC730098 (11760151_x_at) / RFU OR4N2 (11742367_at) / Fold change /veh OR4N2 (11742367_at) / RFU PRRT2 (11749266_a_at) / Fold change /veh PRRT2 (11749266_a_at) / RFU SNX32 (11753110_a_at) / Fold change /veh SNX32 (11753110_a_at) / RFU CDHR5 (11726645_a_at) / Fold change /veh CDHR5 (11726645_a_at) / RFU RCAN1 (11760418_a_at) / Fold change /veh RCAN1 (11760418_a_at) / RFU FAM167A (11723789_a_at) / Fold change /veh FAM167A (11723789_a_at) / RFU FAM26E (11764081_at) / Fold change /veh FAM26E (11764081_at) / RFU ISYNA1 (11749810_s_at) / Fold change /veh ISYNA1 (11749810_s_at) / RFU ACY1 (11761880_at) / Fold change /veh ACY1 (11761880_at) / RFU 11764098_at / Fold change /veh 11764098_at / RFU SAMD14 (11745864_x_at) / Fold change /veh SAMD14 (11745864_x_at) / RFU NPB (11741838_a_at) / Fold change /veh NPB (11741838_a_at) / RFU TMPRSS6 (11731388_a_at) / Fold change /veh TMPRSS6 (11731388_a_at) / RFU KRTAP10-2 (11738614_at) / Fold change /veh KRTAP10-2 (11738614_at) / RFU ARHGAP8 /// PRR5-ARHGAP8 (11727945_x_at) / Fold change /veh ARHGAP8 /// PRR5-ARHGAP8 (11727945_x_at) / RFU KRTAP5-7 /// NADSYN1 (11734609_at) / Fold change /veh KRTAP5-7 /// NADSYN1 (11734609_at) / RFU RASL12 (11751679_a_at) / Fold change /veh RASL12 (11751679_a_at) / RFU CDKN2B (11736163_a_at) / Fold change /veh CDKN2B (11736163_a_at) / RFU PRF1 (11729649_at) / Fold change /veh PRF1 (11729649_at) / RFU, ZNF638 /// ZNF638-IT1 / Fold change vs veh, ZNF638 /// ZNF638-IT1 / RFU, PANK3 / Fold change vs veh, PANK3 / RFU, SH3YL1 / Fold change vs veh, SH3YL1 / RFU, ZEB2 / Fold change vs veh, ZEB2 / RFU, NRIP1 / Fold change vs veh, NRIP1 / RFU, PTTG1IP / Fold change vs veh, PTTG1IP / RFU, CAPN2 / Fold change vs veh, CAPN2 / RFU, MED14 / Fold change vs veh, MED14 / RFU, SNORA58 / Fold change vs veh, SNORA58 / RFU, C1orf63 / Fold change vs veh, C1orf63 / RFU, LRRFIP1 / Fold change vs veh, LRRFIP1 / RFU, NDUFAF7 / Fold change vs veh, NDUFAF7 / RFU, SLC12A2 / Fold change vs veh, SLC12A2 / RFU, IBTK / Fold change vs veh, IBTK / RFU, ESF1 / Fold change vs veh, ESF1 / Fold change vs veh, TMEM50B / RFU, TAOK1 / Fold change vs veh, TAOK1 / RFU, ACBD3 / Fold change vs veh, ACBD3 / RFU, TMA16 / Fold change vs veh, TMA16 / RFU, RWDD3 / Fold change vs veh, RWDD3 / RFU, BCAT1 / Fold change vs veh, BCAT1 / RFU, EDEM3 / Fold change vs veh, EDEM3 / RFU, TMEM33 / Fold change vs veh, TMEM33 / RFU, WDR75 / Fold change vs veh, WDR75 / RFU, AHCTF1 / Fold change vs veh, AHCTF1 / RFU, TFRC / Fold change vs veh, TFRC / RFU, ZDHHC17 / Fold change vs veh, ZDHHC17 / RFU, NOM1 / Fold change vs veh, NOM1 / RFU, ARL8B / Fold change vs veh, ARL8B / RFU, ZBTB11 / Fold change vs veh, ZBTB11 / RFU, TAMM41 / Fold change vs veh, TAMM41 / RFU, KIAA1704 /// LOC100996395 / Fold change vs veh, KIAA1704 /// LOC100996395 / RFU, ING1 / Fold change vs veh, ING1 / RFU, TRMT61B / Fold change vs veh, TRMT61B / RFU, FUBP3 / Fold change vs veh, FUBP3 / RFU, TP53 / Fold change vs veh, TP53 / RFU, TNKS2 / Fold change vs veh, TNKS2 / RFU, ZFP14 / Fold change vs veh, ZFP14 / RFU, ACTR2 / Fold change vs veh, ACTR2 / RFU, PPP3R1 / Fold change vs veh, PPP3R1 / RFU, PIK3R1 / Fold change vs veh, PIK3R1 / RFU, HNRNPA1 / Fold change vs veh, HNRNPA1 / RFU, RNF170 / Fold change vs veh, RNF170 / RFU, ZNF28 / Fold change vs veh, ZNF28 / RFU, RNGTT / Fold change vs veh, RNGTT / RFU, OGT / Fold change vs veh, OGT / RFU, BRD1 / Fold change vs veh, BRD1 / RFU, MARS / Fold change vs veh, MARS / RFU, ZNF655 / Fold change vs veh, ZNF655 / RFU, FAHD1 / Fold change vs veh, FAHD1 / RFU, BDP1 / Fold change vs veh, BDP1 / RFU, LRRCC1 / Fold change vs veh, LRRCC1 / RFU, ARID1A / Fold change vs veh, ARID1A / RFU, ZNF146 / Fold change vs veh, ZNF146 / RFU, ZNF330 / Fold change vs veh, ZNF330 / RFU, GPN3 / Fold change vs veh, GPN3 / RFU, C9orf123 / Fold change vs veh, C9orf123 / RFU, N4BP2L2 / Fold change vs veh, N4BP2L2 / RFU, ARFIP1 / Fold change vs veh, ARFIP1 / RFU, FAM179B / Fold change vs veh, FAM179B / RFU, BCL10 / Fold change vs veh, BCL10 / RFU, UHRF1BP1L / Fold change vs veh, UHRF1BP1L / RFU, BET1 / Fold change vs veh, BET1 / RFU, CNOT2 / Fold change vs veh, CNOT2 / RFU, ZNF268 / Fold change vs veh, ZNF268 / Fold change vs veh, ZNF507 / RFU, DGCR2 / Fold change vs veh, DGCR2 / RFU, WDSUB1 / Fold change vs veh, WDSUB1 / Fold change vs veh, HSP90B1 /// MIR3652 / RFU, ADSS / Fold change vs veh, ADSS / RFU, GK / Fold change vs veh, GK / RFU, ZNF148 / Fold change vs veh, ZNF148 / RFU, TAF9 / Fold change vs veh, TAF9 / RFU, SLC1A5 / Fold change vs veh, SLC1A5 / RFU, SLMO2 / Fold change vs veh, SLMO2 / RFU, ABCC4 / Fold change vs veh, ABCC4 / RFU, LOC101060439 /// RAP1B / Fold change vs veh, LOC101060439 /// RAP1B / RFU, RFX7 / Fold change vs veh, RFX7 / RFU, GTPBP10 / Fold change vs veh, GTPBP10 / RFU, CNEP1R1 / Fold change vs veh, CNEP1R1 / RFU, BIVM-ERCC5 /// ERCC5 / Fold change vs veh, BIVM-ERCC5 /// ERCC5 / RFU, ILF3 / Fold change vs veh, ILF3 / RFU 11762660_at / Fold change /veh 11762660_at / RFU VCAN (11757783_s_at) / Fold change /veh VCAN (11757783_s_at) / RFU DDX43 (11728927_at) / Fold change /veh DDX43 (11728927_at) / RFU KRT8 (11758188_x_at) / Fold change /veh KRT8 (11758188_x_at) / RFU NKD1 (11759106_at) / Fold change /veh NKD1 (11759106_at) / RFU SRD5A1 (11742802_a_at) / Fold change /veh SRD5A1 (11742802_a_at) / RFU TPSAB1 /// TPSB2 (11721975_s_at) / Fold change /veh TPSAB1 /// TPSB2 (11721975_s_at) / RFU GSTM3 (11746129_a_at) / Fold change /veh GSTM3 (11746129_a_at) / RFU IL23R (11737362_x_at) / Fold change /veh IL23R (11737362_x_at) / RFU TMEM51 (11727254_a_at) / Fold change /veh TMEM51 (11727254_a_at) / RFU PIWIL2 (11732686_x_at) / Fold change /veh PIWIL2 (11732686_x_at) / RFU ORM1 (11744905_x_at) / Fold change /veh ORM1 (11744905_x_at) / RFU CCDC152 (11743942_at) / Fold change /veh CCDC152 (11743942_at) / RFU ECM1 (11717891_a_at) / Fold change /veh ECM1 (11717891_a_at) / RFU IL23R (11748794_a_at) / Fold change /veh IL23R (11748794_a_at) / RFU TNFAIP8L3 (11732012_x_at) / Fold change /veh TNFAIP8L3 (11732012_x_at) / RFU MBOAT4 (11741988_at) / Fold change /veh MBOAT4 (11741988_at) / RFU 11764193_at / Fold change /veh 11764193_at / RFU TMEM53 (11763286_at) / Fold change /veh TMEM53 (11763286_at) / RFU MAGEB2 (11727129_at) / Fold change /veh MAGEB2 (11727129_at) / RFU TMEM200A (11744735_a_at) / Fold change /veh TMEM200A (11744735_a_at) / RFU CCDC152 (11751479_a_at) / Fold change /veh CCDC152 (11751479_a_at) / RFU FAM211A (11726209_a_at) / Fold change /veh FAM211A (11726209_a_at) / RFU RGS16 (11746705_a_at) / Fold change /veh RGS16 (11746705_a_at) / RFU VCAN (11755009_s_at) / Fold change /veh VCAN (11755009_s_at) / RFU RHOB (11743442_s_at) / Fold change /veh RHOB (11743442_s_at) / RFU RGS16 (11720943_a_at) / Fold change /veh RGS16 (11720943_a_at) / RFU RGS16 (11720944_at) / Fold change /veh RGS16 (11720944_at) / RFU, VPS4B / Fold change vs veh, VPS4B / RFU, CREB1 / Fold change vs veh, CREB1 / RFU, DNAJC13 / Fold change vs veh, DNAJC13 / RFU, GNAQ / Fold change vs veh, GNAQ / RFU, CDK5R1 / Fold change vs veh, CDK5R1 / RFU, ZRANB3 / Fold change vs veh, ZRANB3 / RFU, CUL4A / Fold change vs veh, CUL4A / RFU, CCNY / Fold change vs veh, CCNY / RFU, UFL1 / Fold change vs veh, UFL1 / RFU, COG3 / Fold change vs veh, COG3 / RFU, DIAPH2 / Fold change vs veh, DIAPH2 / RFU, SKA2 / Fold change vs veh, SKA2 / RFU, AFF3 / Fold change vs veh, AFF3 / RFU, LMF1 / Fold change vs veh, LMF1 / RFU, IPO11 / Fold change vs veh, IPO11 / RFU, DFFB / Fold change vs veh, DFFB / RFU, FOXP1 / Fold change vs veh, FOXP1 / RFU, CARD8 / Fold change vs veh, CARD8 / RFU, STRN3 / Fold change vs veh, STRN3 / RFU, ADK / Fold change vs veh, ADK / RFU, RASSF2 / Fold change vs veh, RASSF2 / RFU, WIPF1 / Fold change vs veh, WIPF1 / RFU, LARP1B / Fold change vs veh, LARP1B / RFU, RASA1 / Fold change vs veh, RASA1 / RFU, RB1 / Fold change vs veh, RB1 / RFU, PPFIA1 / Fold change vs veh, PPFIA1 / RFU, MAT2A / Fold change vs veh, MAT2A / RFU, CCT5 / Fold change vs veh, CCT5 / RFU, WDR92 / Fold change vs veh, WDR92 / RFU, CUX1 / Fold change vs veh, CUX1 / RFU, TTC7A / Fold change vs veh, TTC7A / RFU, TMEM135 / Fold change vs veh, TMEM135 / RFU, DEPTOR / Fold change vs veh, DEPTOR / RFU, CPM / Fold change vs veh, CPM / RFU, DNAJB6 / Fold change vs veh, DNAJB6 / RFU, CACNA2D3 / Fold change vs veh, CACNA2D3 / RFU, DTX4 / Fold change vs veh, DTX4 / RFU, TFCP2 / Fold change vs veh, TFCP2 / RFU, GMCL1 /// GMCL1P1 / Fold change vs veh, GMCL1 /// GMCL1P1 / RFU, AEBP2 / Fold change vs veh, AEBP2 / RFU, SNHG1 /// SNORD22 /// SNORD25 /// SNORD26 /// SNORD27 /// SNORD28 /// SNORD29 /// SNORD31 / Fold change vs veh, SNHG1 /// SNORD22 /// SNORD25 /// SNORD26 /// SNORD27 /// SNORD28 /// SNORD29 /// SNORD31 / Fold change (Aza/veh), C12orf56 (ProbeSet 11735607_a_at) / Fold change (ACY-1035/veh), C12orf56 (ProbeSet 11735607_a_at) / Fold change (Aza/veh), FGFR1OP (ProbeSet 11751329_s_at) / Fold change (ACY-1035/veh), FGFR1OP (ProbeSet 11751329_s_at) / Fold change (Aza/veh), VPS36 (ProbeSet 11739960_a_at) / Fold change (ACY-1035/veh), VPS36 (ProbeSet 11739960_a_at) / RFU SYPL1 (11715823_x_at) / Fold change /veh SYPL1 (11715823_x_at) / RFU IGFBP7 (11715501_s_at) / Fold change /veh IGFBP7 (11715501_s_at) / RFU REEP3 (11722064_at) / Fold change /veh REEP3 (11722064_at) / RFU IGLL1 (11728026_x_at) / Fold change /veh IGLL1 (11728026_x_at): dose or concentration left out as unconfirmed. Particulars: MV-4-11 cells, 48 hours.

In the case of `Nc1ccc(-c2cccs2)cc1NC(=O)c1ccc2c(c1)cc(C1CC1)n2CCN1CCOCC1` [ACY-1035], the “RFU FAM211A (11726209_a_at)” value came to 5.89 RFU.
